The source of these data is ChEMBL document CHEMBL4382229, “Benzofuran derivatives and their anti-tubercular, anti-bacterial activities” (Eur J Med Chem, 2019).

Assay [1] deals with Staphylococcus aureus. In words: Antibacterial activity against Staphylococcus aureus MTCC 96 assessed as zone of inhibition at 100 ug/ml by disc diffusion method. It counts as functional. Conditions: read-out: IZ. On the technique in general: A growth-free zone around the sample is the usual read-out of agar diffusion tests.
Assay [2] relates to Streptococcus pyogenes. Nature of the assay: Antibacterial activity against Streptococcus pyogenes MTCC 442 assessed as zone of inhibition at 100 ug/ml by disc diffusion method. It is filed as functional. Conditions: read-out: IZ.
Assay [3] deals with Escherichia coli. Nature of the assay: Antibacterial activity against Escherichia coli MTCC 443 assessed as zone of inhibition at 100 ug/ml by disc diffusion method. It is filed as functional. Conditions: read-out: IZ.
In assay [4] the test system is Pseudomonas aeruginosa. Nature of the assay: Antibacterial activity against Pseudomonas aeruginosa MTCC 424 assessed as zone of inhibition at 100 ug/ml by disc diffusion method. It counts as functional. Conditions: read-out: IZ.
Assay [5] deals with Escherichia coli. Nature of the assay: Antibacterial activity against Escherichia coli by broth dilution method. It counts as functional. Background: In broth dilution the organism is exposed to a series of concentrations in liquid medium.
Assay [6] relates to Pseudomonas aeruginosa. Nature of the assay: Antibacterial activity against Pseudomonas aeruginosa by broth dilution method. It counts as functional.
The subject of another assay is Bacillus spizizenii. Nature of the assay: Antibacterial activity against Bacillus subtilis ATCC 6633 after 24 hrs by broth dilution method. It counts as functional. Conditions: ATCC 6633, 24 h.
In assay [7] the test system is Staphylococcus aureus. Nature of the assay: Antibacterial activity against Staphylococcus aureus ATCC 29213 after 24 hrs by broth dilution method. It is filed as functional. The note with it: ATCC 29213, 24 h.
In assay [8] the test system is Escherichia coli. In words: Antibacterial activity against Escherichia coli ATCC 11229 after 24 hrs by broth dilution method. It counts as functional. The note with it: ATCC 11229, 24 h.
The next assay deals with Proteus vulgaris. In words: Antibacterial activity against Proteus vulgaris […] after 24 hrs by broth dilution method. It is filed as functional.
In assay [9] the test system is Staphylococcus aureus. Nature of the assay: Antibacterial activity against Staphylococcus aureus MTCC 96 assessed as zone of inhibition at 25 ug/ml by agar well diffusion method. It counts as functional. Conditions: read-out: IZ.
Assay [10] relates to Streptococcus pyogenes. In words: Antibacterial activity against Streptococcus pyogenes MTCC 442 assessed as zone of inhibition at 25 ug/ml by agar well diffusion method. It is filed as functional. Conditions: read-out: IZ.
For assay [11], the system named is Escherichia coli. Nature of the assay: Antibacterial activity against Escherichia coli MTCC 443 assessed as zone of inhibition at 25 ug/ml by agar well diffusion method. It is filed as functional. Conditions: read-out: IZ.
Assay [12] has as its system Pseudomonas aeruginosa. In words: Antibacterial activity against Pseudomonas aeruginosa MTCC 424 assessed as zone of inhibition at 25 ug/ml by agar well diffusion method. Conditions: read-out: IZ. It is filed as functional.
The target of assay [13] is DNA gyrase subunit A/DNA gyrase subunit B (Mycobacterium tuberculosis (strain ATCC 25618 / H37Rv), UniProt P9WG45+P9WG47). In words: Inhibition of Mycobacterium tuberculosis H37Rv DNA gyrase A/B expressed in Escherichia coli assessed as reduction in supercoiling of relaxed pBR322 DNA substrate measured after 60 mins by ethidium bromide staining based agarose gel electrophoresis method.

Assay [14] relates to Staphylococcus aureus. In words: Antibacterial activity against Staphylococcus aureus assessed as diameter of inhibition zone at 250 ug/ml after 24 hrs by disc diffusion method. It counts as functional. Conditions: read-out: DIZ.
In assay [15] the test system is Escherichia coli. In words: Antibacterial activity against Escherichia coli assessed as diameter of inhibition zone at 250 ug/ml after 24 hrs by disc diffusion method. It counts as functional. The note with it: read-out: DIZ.
Assay [16] concerns Mycobacterium tuberculosis. In words: Antimycobacterial activity against Mycobacterium tuberculosis H37Rv ATCC 27294 after 5 days by microplate alamar blue assay. It counts as functional. Conditions: H37Rv ATCC 27294, 120 h. (In general: Alamar Blue is a resazurin reagent that responds to reducing activity.)
In assay [17] the test system is Escherichia coli. In words: Antibacterial activity against Escherichia coli assessed as zone of inhibition at 50 ug/ml after 3 days by filter paper disc method. The note with it: 72 h, read-out: IZ. It is filed as functional.
Assay [18] relates to Pseudomonas aeruginosa. Nature of the assay: Antibacterial activity against Pseudomonas aeruginosa assessed as zone of inhibition at 50 ug/ml after 3 days by filter paper disc method. It counts as functional. Conditions: 72 h, read-out: IZ.

For orientation: MIC means the lowest concentration that inhibits growth of the organism. Broadly, the IC50 is the concentration that inhibits the measured activity by half.

≈ marks a conversion by molar mass, not a printed value.

Regarding `Cc1cc(NS(C)(=O)=O)c2oc(COC(=O)NCc3ccccc3)cc2c1`, the zone of inhibition at 100 µg/mL in the assay on Staphylococcus aureus [1], in the assay on Streptococcus pyogenes [2], in the assay with Escherichia coli [3] and in the assay with Pseudomonas aeruginosa [4] was 19 to 28 mm throughout.

For `COc1ccc2occ(-c3cc4cc(Br)ccc4oc3=O)c2c1`, the MIC against Escherichia coli [5] and with Pseudomonas aeruginosa [6] was 6.25 to 100 µg/mL (≈ 16.8 to 269 µM) in each case.

`O=c1oc2ccccc2cc1-c1coc2ccc3ccccc3c12`: the MIC against Escherichia coli [5] and against Pseudomonas aeruginosa [6] was 6.25 to 100 µg/mL (≈ 20 to 320 µM) throughout.

With `COc1ccc(-c2nn(-c3ccccc3)cc2/C=C/c2oc3c4c(ccc3c2C(=O)c2ccc(Br)cc2)OCC=C4)cc1`, the MIC with Bacillus spizizenii, in the assay on Staphylococcus aureus [7], with Escherichia coli [8] and in the assay on Proteus vulgaris was 3.1 to 6.3 µg/mL (≈ 4.92 to 10 µM) each time.

`COc1cc(OC)c(-c2cc3cc(C(=O)/C=C/c4ccc5occc5c4)cc(OC)c3o2)c(OC)c1`: the zone of inhibition at 25 µg/mL in the assay on Staphylococcus aureus [9], in the assay with Streptococcus pyogenes [10], in the assay on Escherichia coli [11] and in the assay on Pseudomonas aeruginosa [12] was 21 to 28 mm in each case.

Take `O=C1Nc2ccc([N+](=O)[O-])cc2/C1=N/NC(=O)c1cc2ccccc2o1`: the 50% inhibitory concentration (IC50) in assay [13] lay within 50 to 200 µM.

On to `Cc1cc(NS(=O)(=O)c2ccccc2)c2oc(COC(=O)NCc3ccccc3)cc2c1`, for which the zone of inhibition at 100 µg/mL in the assay on Staphylococcus aureus [1], in the assay with Streptococcus pyogenes [2], with Escherichia coli [3] and with Pseudomonas aeruginosa [4] was 11 to 28 mm in each case.

`Cc1ccc(Oc2nc3ccc(C)cc3cc2C2SCC(=O)N2NC(=O)c2cc(-c3cc4ccccc4o3)n(-c3ccccc3)n2)cc1` (centres undefined): the zone of inhibition at 250 µg/mL with Staphylococcus aureus [14] and in the assay with Escherichia coli [15] was 12 to 14 mm each time.

Compound `Cc1c(C(=O)NN)oc2ccccc12` showed an MIC in [16] of 6.25 µg/mL (≈ 32.9 µM).

Consider `O=C(O)c1cn(C2CC2)c2cc(N3CCNCC3)c(F)cc2c1=O` [CIPROFLOXACIN], for which the MIC in [16] is 3.12 µg/mL (≈ 9.43 µM); with Pseudomonas aeruginosa [6], under 4 µg/mL. Further, the zone of inhibition at 50 µg/mL in the assay with Escherichia coli [17] and with Pseudomonas aeruginosa [18] was 25 to 28 mm each time. Also, the zone of inhibition at 100 µg/mL in the assay with Staphylococcus aureus [1], in the assay with Streptococcus pyogenes [2], in the assay with Escherichia coli [3] and with Pseudomonas aeruginosa [4] was 21 to 28 mm throughout.

In the case of `Cc1ccc(Oc2nc3ccc(C)cc3cc2/C=N\NC(=O)c2cc(-c3cc4ccccc4o3)n(-c3ccccc3)n2)cc1`, the zone of inhibition at 250 µg/mL in the assay with Staphylococcus aureus [14] and in the assay on Escherichia coli [15] was 12 to 14 mm each time.

Regarding `COc1cc(OC)c(-c2cc3cc(C(=O)NN)cc(OC)c3o2)c(OC)c1`, the zone of inhibition at 25 µg/mL in the assay on Staphylococcus aureus [9], in the assay on Streptococcus pyogenes [10], in the assay with Escherichia coli [11] and with Pseudomonas aeruginosa [12] was 21 to 27 mm each time.

Regarding `CC(=O)Nc1cc(C)cc2cc(COC(=O)NCc3ccccc3)oc12`, the zone of inhibition at 100 µg/mL with Staphylococcus aureus [1], in the assay with Streptococcus pyogenes [2], with Escherichia coli [3] and in the assay on Pseudomonas aeruginosa [4] was 11 to 28 mm throughout.

Regarding `O=c1oc2ccccc2cc1-c1coc2c1ccc1ccccc12`, the MIC against Escherichia coli [5] and with Pseudomonas aeruginosa [6] was 6.25 to 100 µg/mL (≈ 20 to 320 µM) in each case.

On to `O=c1oc2ccc(Br)cc2cc1-c1coc2ccc3ccccc3c12`, for which the minimum inhibitory concentration (MIC) with Escherichia coli [5] and against Pseudomonas aeruginosa [6] was 6.25 to 100 µg/mL (≈ 16 to 256 µM) throughout.

`NC(=O)c1cnccn1` [PYRAZINAMIDE] gave an MIC in [16] of 3.12 µg/mL (≈ 25.4 µM).

With `Cc1ccc2c(c1)/C(=N/NC(=O)c1cc3ccccc3o1)C(=O)N2`, the half-maximal inhibitory concentration (IC50) in [13] was in the range of 50 to 200 µM.

Turning to `O=C1Nc2ccc(Cl)cc2/C1=N/NC(=O)c1cc2ccccc2o1`, the IC50 in [13] lay in the range of 50 to 200 µM.
